Data reported in patent publication US8575357B2, “Substituted (thiazolyl-carbonyl)imidazolidinones and use thereof” (AiCuris GmbH & Co. KG, priority 2009, dated 2013).

Tests used:
[1] = test system: HIV-1NL4-3 reporter virus, wild-type; experiment: Light assay with wild-type HI reporter virus in MT4 7F2 cells; type: cell-based; settings: Human immunodeficiency virus 1, 120 h, read-out: EC50 (nM) MT4 7F2 cells HIV-1NL4-M3 wt 2% FCS
Protocol: (§1) For the mixture for a 96-well MTP, 3 million MT4 7F2 cells are pelleted, suspended in 1 ml of RPMI 1640 medium without phenol red (Invitrogen, Karlsruhe, Germany)/10% FCS/10% AIM-V (Invitrogen, Karlsruhe, Germany) and incubated together with a suitable amount of the corresponding HIV-1NL4-3 reporter virus at 37° C. for 2 hours (pellet infection). Unadsorbed viruses are subsequently washed out with PBS, and the infected cells are pelleted again and suspended in 8 ml of RPMI 1640 medium without phenol red/2% or 10% FCS/10% AIM-V. 80 μl thereof are pipetted into each well of a white 96-well MTP with 20 μl of test substance in suitable dilution. To avoid edge effects, the wells on the edge of the MTP are not used for substance dilutions. The second vertical row of the MTP contains only infected cells (virus control) and the eleventh vertical row only uninfected cells (cell control), in each case in RPMI 1640 medium without phenol red/2% or 10% FCS/10% AIM-V. The other wells of the MTP contain the compounds of the invention in various concentrations starting from the third vertical row, from which the test substances are diluted in 3-fold steps up to the tenth vertical row 3^7-fold. The test substances are dissolved in DMSO, whereby the final DMSO concentration in the test mixture is 1%. The test mixtures are incubated at 37° C./5% CO2 for five days and, after the addition of 15 μl of Lu164 substrate (5 mg/ml coelenterazine dissolved in 30 μM glutathione/DMSO, 100 mM NaCl, 1M MES, 100 mM glutathione), evaluated by luminometry. The resulting values are in the region of 1 000 000 RLUs (relative light units) for the virus control and 300 to 400 RLUs for the cell control. The EC50 values of the test substances are determined as the concentration at which the virus replication measured in RLUs is 50% of the untreated infected cells.

[2] = test system: HIV-1NL4-3 reporter virus, reverse transcriptase mutations K103N-Y181C; experiment: Light assay with inhibitor-resistant HI reporter virus in MT4 7F2 cells; type: cell-based; settings: Human immunodeficiency virus 1, 120 h, read-out: EC50 (nM) MT4 7F2 cells HIV-1NL4-M3 K103N-Y181C 2% FCS
Protocol: as §1

reverse transcriptase = target: T1, reverse transcriptase (Human immunodeficiency virus type 1 group M subtype B, UniProt P04585); experiment: Biochemical reverse transcriptase assay (Reverse Transcriptase Assay, colorimetric, Roche); settings: colorimetric RT assay, final DMSO 1%; read-out: IC50 (nM) RT assay
T1 construct: negative control (mixture without reverse transcriptase); purchased Roche Diagnostics GmbH, Mannheim, Germany
Protocol: The “Reverse Transcriptase Assay, colorimetric” (Roche Diagnostics GmbH, Mannheim, Germany) is used in accordance with the manufacturer's information. The test substances are dissolved in DMSO and are used in the test diluted in 5-fold steps (final DMSO concentration 1%). The resulting values of the photometric evaluation (405/492 nm) are less than 0.1 for the negative control (mixture without reverse transcriptase) and are in the region of 1.5 for the positive control (mixture without test substance). The IC50 values of the test substances are determined as the concentration of the test substance dilution at which the measured optical density is 50% of the positive control.

HIV-1LAI = experiment: H9 assay with wild-type HIV-1 (HIV-1LAI supernatant infection, AlamarBlue); type: cell-based; settings: Human immunodeficiency virus 1, 120 h, H9 cells, 10% FCS, 5 days
Protocol: For the mixture for a 96-well MTP, 3 million PBLs are pelleted, suspended in 1 ml of RPMI 1640 medium/10% FCS and incubated together with a suitable amount of HIV-1LAI (NIH AIDS Research & Reference Reagent Program, Germantown, USA) at 37° C. for 2 hours (pellet infection). Unadsorbed viruses are subsequently washed out with PBS, and the infected cells are pelleted again and suspended in 18 ml of RPMI 1640 medium/10% FCS/interleukin-2 (40 U/ml). 180 μl thereof are pipetted into each well of a white 96-well MTP with 20 μl of test substance in suitable dilution. Alternatively, after preparation of the substance dilutions in the MTP, the HIV is pipetted in together with the cells and is not washed out again (supernatant infection). In order to avoid edge effects, the wells at the edge of the MTP are not used for substance dilutions. The second vertical row of the MTP contains only infected cells (virus control) and the eleventh vertical row only uninfected cells (cell control), in each case in RPMI 1640 medium/10% FCS/interleukin-2 (40 U/ml). The other wells of the MTP contain the compounds of the invention in various concentrations starting from the third vertical row, from which the test substances are diluted in 3-fold steps up to the tenth vertical row 3^7-fold. The test substances are dissolved in DMSO, whereby the final DMSO concentration in the test mixture is 1%. The test mixtures are incubated at 37° C./5% CO2. After 5 and 7 days, 50 μl of cell-free supernatant are removed from each well to determine the amount of p24 present by means of a p24 ELISA (HIV-1 p24^CA Antigen Capture Assay Kit, NCI-Frederick Cancer Research and Development Center, Frederick, USA). From the resulting values of the photometric evaluation (450/620 nm) the EC50 values of the test substances are determined as the concentration at which the amount of p24 is 50% of the untreated infected cells.
Alternatively, H9 cells (ATCC, Wesel, Germany) are employed instead of PBLs for testing the test substances. H9 cells are incubated in RPMI 1640 medium with 2% or 10% FCS as a HIV-1LAI supernatant infection at 37° C./5% CO2, (20 μl of substance dilution and 80 μl of cells/virus per well) in accordance with the pattern described above for 5 days. Subsequently, 10 μl of AlamarBlue (Invitrogen, Karlsruhe, Germany) are added to each well, and the MTPs are incubated at 37° C. for 3 hours before the fluorimetric evaluation takes place (544/590 nm). The resulting values are about 40 000 for the untreated uninfected cells and about 7000 for the untreated infected cells. In the low concentration range, the EC50 values of the test substances are determined as the concentration at which the fluorescence is 50% of the untreated uninfected cells (in each case subtracting the values of the untreated infected cells). In addition, in the high concentration range, the CC50 values of the test substances are determined as the concentration at which the fluorescence is 50% of the untreated uninfected cells (in each case subtracting the values of the untreated infected cells).

Row | Compound | EC50 [1] [nM] | EC50 [2] [nM] | IC50 (reverse transcriptase) [nM] | EC50 (HIV-1LAI) [nM]
1 | O=C1CN(C(=O)c2nc(-c3cccc(Cl)c3)c(-c3cc(F)cc(Cl)c3)s2)CN1 [Example 3, 1-{[5-(3-Chloro-5-fluorophenyl)-4-(3-chlorophenyl)-1,3-thiazole-2-yl]carbonyl}imidazolidin-4-one] | 0.6 | 60 | 20 | 12
2 | O=C1CN(C(=O)c2nc(-c3cccc(Cl)c3)c(-c3cccc(Cl)c3)s2)CN1 [Example 20, 1-{[4,5-Bis(3-chlorophenyl)-1,3-thiazole-2-yl]carbonyl}imidazolidin-4-one] | 1 | 149 | 47 | 7
